In the supplement of paper PMC10307832:

Columns and labels:
Test in all cases: relative viability (nuclei count vs DMSO), 5 days (fraction); higher = more cells survive
[1] = compound: C1CN(CCC1C(C2=CC3=C(C=C2)OCO3)(C4=CC5=C(C=C4)OCO5)O)C(=O)OC6=CC=C(C=C6)[N+](=O)[O-] [JZL-184]
Outline: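 Five library-drug doses, separated by factors of √10, were pinned into 1536-well plates holding lung cancer cell lines after an overnight stay at 37 °C. Cells were fixed, permeabilised and Hoechst-stained in one step after 5 days without medium change, then imaged at 4×. Viability compares treated-well with vehicle-well nuclei, counted in MetaXpress, as a median across plates. Passing plates had control CV below 25% and at least one doubling.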

[2] = compound: C1CN(CCC1C(C2=CC3=C(C=C2)OCO3)(C4=CC5=C(C=C4)OCO5)O)C(=O)OC6=CC=C(C=C6)[N+](=O)[O-] [JZL-184] + CC(=O)Nc1cccc(-n2c(=O)n(C3CC3)c(=O)c3c(Nc4ccc(I)cc4F)n(C)c(=O)c(C)c32)c1 [Trametinib] (partner 0.02 µM)
Outline: (§1)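 Lung cancer cell lines were pin-tool dosed in 1536-well plates on the day after seeding, with either a lone drug or a fixed anchor-drug dose plus five library-drug doses (not always all listed) in √10 steps. Nuclei were counted on 4× images after 5 days. Relative viability is the ratio of treated-well to vehicle-well nuclei counts, with each value a median of duplicate plates.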

[3] = compound: C1CN(CCC1C(C2=CC3=C(C=C2)OCO3)(C4=CC5=C(C=C4)OCO5)O)C(=O)OC6=CC=C(C=C6)[N+](=O)[O-] [JZL-184] + CS(=O)(=O)CCNCc1ccc(-c2ccc3ncnc(Nc4ccc(OCc5cccc(F)c5)c(Cl)c4)c3c2)o1 [Lapatinib] (partner 2 µM)
Outline: as §1

[4] = compound: C1CN(CCC1C(C2=CC3=C(C=C2)OCO3)(C4=CC5=C(C=C4)OCO5)O)C(=O)OC6=CC=C(C=C6)[N+](=O)[O-] [JZL-184] + NC(=O)Nc1cc(-c2cccc(F)c2)sc1C(=O)N[C@H]1CCCNC1 [AZD7762] (partner 0.2 µM)
Outline: as §1

[5] = compound: C1CN(CCC1C(C2=CC3=C(C=C2)OCO3)(C4=CC5=C(C=C4)OCO5)O)C(=O)OC6=CC=C(C=C6)[N+](=O)[O-] [JZL-184] + O=C(CCCCCCC(=O)Nc1ccccc1)NO [Vorinostat] (partner 1 µM)
Outline: as §1

| Cell Line | relative viability ([1]; 0.04 µM) | relative viability ([1]; 0.4 µM) | relative viability ([1]; 1.265 µM) | relative viability ([1]; 4 µM) | relative viability ([2]; first compound 0.04 µM) | relative viability ([2]; first compound 0.4 µM) | relative viability ([2]; first compound 1.265 µM) | relative viability ([2]; first compound 4 µM) | relative viability ([3]; first compound 0.04 µM) | relative viability ([3]; first compound 0.4 µM) | relative viability ([3]; first compound 1.265 µM) | relative viability ([3]; first compound 4 µM) | relative viability ([4]; first compound 0.04 µM) | relative viability ([4]; first compound 0.4 µM) | relative viability ([4]; first compound 1.265 µM) | relative viability ([4]; first compound 4 µM) | relative viability ([5]; first compound 0.04 µM) | relative viability ([5]; first compound 0.4 µM) | relative viability ([5]; first compound 1.265 µM) | relative viability ([5]; first compound 4 µM) |
| --- | --- | --- | --- | --- | --- | --- | --- | --- | --- | --- | --- | --- | --- | --- | --- | --- | --- | --- | --- | --- |
| H3255 | 1.1 | 0.871 | 1.07 | 0.885 | 0.71 | 0.581 | 0.684 | 0.549 | 0.234 | 0.267 | 0.261 | 0.321 | 0.945 | 0.743 | 0.948 | 0.86 | 0.849 | 0.819 | 0.857 | 0.722 |
| NCI-H1975 | 0.996 | 0.938 | 1.01 | 0.915 | 0.314 | 0.33 | 0.349 | 0.33 | 1.08 | 0.824 | 1.02 | 0.888 | 0.723 | 0.664 | 0.804 | 0.583 | 0.731 | 0.694 | 0.718 | 0.635 |
| NCI-H647 | 1.04 | 0.945 | 1.06 | 0.887 | 0.455 | 0.41 | 0.562 | 0.504 | 1.35 | 0.969 | 1.28 | 1.14 | 0.45 | 0.391 | 0.426 | 0.451 | 0.898 | 0.635 | 0.892 | 0.4 |
| A-427 | 1.09 | 0.982 | 1.12 | 0.948 | 0.757 | 0.75 | 0.821 | 0.684 | 1.17 | 1.05 | 1.01 | 1.09 | 0.807 | 0.722 | 0.838 | 0.703 | 0.871 | 0.829 | 0.83 | 0.754 |
| LXF-289 | 1.08 | 0.926 | 1.02 | 0.959 | 0.789 | 0.604 | 0.668 | 0.668 | 0.92 | 0.866 | 0.924 | 0.852 | 1.07 | 1.08 | 1.1 | 1.06 | 0.771 | 0.734 | 0.755 | 0.669 |
| NCI-H727 | 0.949 | 0.793 | 1.09 | 0.781 | 0.416 | 0.366 | 0.414 | 0.39 | 0.92 | 0.688 | 0.862 | 0.807 | 0.493 | 0.464 | 0.621 | 0.595 | 1.26 | 1.14 | 1.08 | 1.05 |
| NCI-H1437 | 1.04 | 0.948 | 1.02 | 0.961 | 0.495 | 0.482 | 0.479 | 0.445 | 0.984 | 0.717 | 0.773 | 0.759 | 1.19 | 1.07 | 1.15 | 1.19 | 0.731 | 0.725 | 0.756 | 0.659 |
| RERF-LC-KJ | 1.05 | 0.981 | 1.02 | 0.988 | 0.952 | 0.868 | 0.876 | 0.781 | 0.961 | 0.835 | 0.874 | 0.772 | 1.11 | 0.963 | 0.895 | 1 | 0.707 | 0.642 | 0.699 | 0.614 |
| HCC-44 | 1.05 | 0.923 | 1.06 | 0.983 | 1.04 | 1.07 | 1.04 | 1.01 | 1.15 | 0.93 | 1.08 | 1.07 | 1.14 | 1.01 | 1.03 | 0.987 | 1.28 | 1.05 | 1.13 | 1.06 |
| EPLC-272H | 1 | 0.914 | 1.15 | 0.937 | 0.288 | 0.32 | 0.272 | 0.23 | 1.07 | 1.02 | 0.972 | 0.944 | 0.194 | 0.186 | 0.211 | 0.302 | 0.509 | 0.536 | 0.402 | 0.53 |
| NCI-H358 | 1 | 0.824 | 0.994 | 0.916 | 0.146 | 0.133 | 0.148 | 0.15 | 0.52 | 0.418 | 0.448 | 0.436 | 0.585 | 0.639 | 0.569 | 0.51 | 0.776 | 0.768 | 0.677 | 0.69 |
| NCI-H596 | 1.21 | 0.875 | 1.01 | 0.932 | 0.86 | 0.76 | 0.801 | 0.767 | 1.12 | 0.948 | 1.04 | 0.992 | 1.16 | 0.911 | 1.11 | 1.29 | 0.701 | 0.63 | 0.501 | 0.556 |
| NCI-H322M | 0.951 | 0.926 | 0.982 | 0.774 | 0.456 | 0.48 | 0.513 | 0.482 | 0.654 | 0.599 | 0.562 | 0.578 | 0.549 | 0.523 | 0.629 | 0.521 | 0.882 | 0.784 | 0.867 | 0.684 |
